From patent US11767310B2, “Nicotinamide RIPK1 inhibitors” (AbbVie Inc., priority 2021, dated 2023)
Where two headings read alike, the source gives them in different places.

What was measured:
Assay in all cases: Kinase binding screen
WNK4 = WNK4 (Homo sapiens (Human), UniProt Q96J92); settings: read-out: Percent Control at 100 nM Compound Concentration
SRMS = SRMS (Homo sapiens (Human), UniProt Q9H3Y6); settings: read-out: Percent Control at 100 nM Compound Concentration
PKN1 = PKN1 (Homo sapiens (Human), UniProt Q16512); settings: read-out: Percent Control at 100 nM Compound Concentration
PKN1, sequence (Q16512 whole entry): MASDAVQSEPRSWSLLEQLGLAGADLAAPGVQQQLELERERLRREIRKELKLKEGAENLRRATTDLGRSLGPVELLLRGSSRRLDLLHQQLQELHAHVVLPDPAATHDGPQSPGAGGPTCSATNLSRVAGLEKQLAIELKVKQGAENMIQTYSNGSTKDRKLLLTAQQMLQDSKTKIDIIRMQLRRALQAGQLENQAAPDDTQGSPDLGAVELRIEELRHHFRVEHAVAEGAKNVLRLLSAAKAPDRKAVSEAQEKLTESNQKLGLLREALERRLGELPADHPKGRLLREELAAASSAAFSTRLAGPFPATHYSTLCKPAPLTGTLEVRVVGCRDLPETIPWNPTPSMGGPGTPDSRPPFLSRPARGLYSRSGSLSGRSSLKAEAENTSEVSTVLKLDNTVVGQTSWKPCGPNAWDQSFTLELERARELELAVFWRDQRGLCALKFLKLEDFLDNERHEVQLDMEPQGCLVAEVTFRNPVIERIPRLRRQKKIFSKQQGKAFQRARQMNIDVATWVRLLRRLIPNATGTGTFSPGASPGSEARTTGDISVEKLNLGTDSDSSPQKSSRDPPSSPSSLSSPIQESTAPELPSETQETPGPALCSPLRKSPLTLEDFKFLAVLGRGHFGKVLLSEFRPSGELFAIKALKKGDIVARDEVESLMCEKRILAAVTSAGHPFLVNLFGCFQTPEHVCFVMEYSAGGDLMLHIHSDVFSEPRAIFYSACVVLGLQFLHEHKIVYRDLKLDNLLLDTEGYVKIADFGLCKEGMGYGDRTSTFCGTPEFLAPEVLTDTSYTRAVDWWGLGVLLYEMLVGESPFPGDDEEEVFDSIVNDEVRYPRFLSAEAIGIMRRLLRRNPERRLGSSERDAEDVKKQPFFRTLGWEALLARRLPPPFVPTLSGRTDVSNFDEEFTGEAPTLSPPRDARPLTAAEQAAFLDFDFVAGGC

FLT3(ITD,F691L) = test system: FLT3(ITD,F691L); parameters: species or system human
FGFR3 = FGFR3 (Homo sapiens (Human), UniProt P22607); settings: read-out: Percent Control at 100 nM Compound Concentration
GRK7 = GRK7 (Homo sapiens (Human), UniProt Q8WTQ7); settings: read-out: Percent Control at 100 nM Compound Concentration
GRK7, sequence (Q8WTQ7 whole entry): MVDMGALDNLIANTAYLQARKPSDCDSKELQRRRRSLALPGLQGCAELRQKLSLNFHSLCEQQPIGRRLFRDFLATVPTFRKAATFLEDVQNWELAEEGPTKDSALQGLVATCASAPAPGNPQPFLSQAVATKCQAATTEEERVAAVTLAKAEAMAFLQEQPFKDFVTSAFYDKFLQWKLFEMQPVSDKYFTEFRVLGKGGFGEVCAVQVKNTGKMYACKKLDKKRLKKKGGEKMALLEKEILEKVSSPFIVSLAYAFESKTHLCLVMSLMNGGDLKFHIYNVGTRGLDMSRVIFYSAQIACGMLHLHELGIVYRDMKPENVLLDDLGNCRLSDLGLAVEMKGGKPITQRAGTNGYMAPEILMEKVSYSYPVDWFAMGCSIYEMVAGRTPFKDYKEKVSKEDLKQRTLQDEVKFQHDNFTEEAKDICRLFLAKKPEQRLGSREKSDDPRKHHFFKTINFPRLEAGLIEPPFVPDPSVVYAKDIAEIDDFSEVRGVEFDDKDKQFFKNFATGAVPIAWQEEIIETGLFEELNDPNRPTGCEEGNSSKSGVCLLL

KIT = KIT (Homo sapiens (Human), UniProt P10721); settings: read-out: Percent Control at 100 nM Compound Concentration
KIT, sequence (P10721 26-976): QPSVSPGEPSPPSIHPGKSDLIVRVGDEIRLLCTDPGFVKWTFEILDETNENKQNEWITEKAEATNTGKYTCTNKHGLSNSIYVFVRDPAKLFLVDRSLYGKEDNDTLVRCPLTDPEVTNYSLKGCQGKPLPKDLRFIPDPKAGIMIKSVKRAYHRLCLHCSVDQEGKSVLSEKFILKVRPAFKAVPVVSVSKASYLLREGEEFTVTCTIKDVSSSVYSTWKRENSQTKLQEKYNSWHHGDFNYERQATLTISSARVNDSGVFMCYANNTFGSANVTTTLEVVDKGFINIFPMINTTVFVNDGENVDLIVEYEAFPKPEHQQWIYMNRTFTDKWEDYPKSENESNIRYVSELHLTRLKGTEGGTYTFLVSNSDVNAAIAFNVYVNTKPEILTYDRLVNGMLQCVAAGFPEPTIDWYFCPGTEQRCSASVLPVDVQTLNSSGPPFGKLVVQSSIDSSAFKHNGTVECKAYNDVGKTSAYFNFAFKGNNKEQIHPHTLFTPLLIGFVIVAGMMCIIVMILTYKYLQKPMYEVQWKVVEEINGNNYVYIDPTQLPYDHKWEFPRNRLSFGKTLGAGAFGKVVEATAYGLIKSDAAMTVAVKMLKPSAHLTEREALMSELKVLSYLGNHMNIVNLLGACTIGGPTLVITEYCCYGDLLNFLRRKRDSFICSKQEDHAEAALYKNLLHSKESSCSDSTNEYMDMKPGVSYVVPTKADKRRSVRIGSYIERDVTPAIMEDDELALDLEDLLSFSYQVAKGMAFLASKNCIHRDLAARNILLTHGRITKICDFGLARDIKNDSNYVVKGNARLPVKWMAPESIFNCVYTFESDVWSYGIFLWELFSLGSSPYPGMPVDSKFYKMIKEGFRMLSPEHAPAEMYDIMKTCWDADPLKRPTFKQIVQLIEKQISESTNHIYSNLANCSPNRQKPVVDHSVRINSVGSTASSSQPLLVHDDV

TRKA = TRKA (Homo sapiens (Human), UniProt P04629); settings: read-out: Percent Control at 100 nM Compound Concentration
STK36 = STK36 (Homo sapiens (Human), UniProt Q9NRP7); settings: read-out: Percent Control at 100 nM Compound Concentration
STK36, sequence (Q9NRP7 whole entry): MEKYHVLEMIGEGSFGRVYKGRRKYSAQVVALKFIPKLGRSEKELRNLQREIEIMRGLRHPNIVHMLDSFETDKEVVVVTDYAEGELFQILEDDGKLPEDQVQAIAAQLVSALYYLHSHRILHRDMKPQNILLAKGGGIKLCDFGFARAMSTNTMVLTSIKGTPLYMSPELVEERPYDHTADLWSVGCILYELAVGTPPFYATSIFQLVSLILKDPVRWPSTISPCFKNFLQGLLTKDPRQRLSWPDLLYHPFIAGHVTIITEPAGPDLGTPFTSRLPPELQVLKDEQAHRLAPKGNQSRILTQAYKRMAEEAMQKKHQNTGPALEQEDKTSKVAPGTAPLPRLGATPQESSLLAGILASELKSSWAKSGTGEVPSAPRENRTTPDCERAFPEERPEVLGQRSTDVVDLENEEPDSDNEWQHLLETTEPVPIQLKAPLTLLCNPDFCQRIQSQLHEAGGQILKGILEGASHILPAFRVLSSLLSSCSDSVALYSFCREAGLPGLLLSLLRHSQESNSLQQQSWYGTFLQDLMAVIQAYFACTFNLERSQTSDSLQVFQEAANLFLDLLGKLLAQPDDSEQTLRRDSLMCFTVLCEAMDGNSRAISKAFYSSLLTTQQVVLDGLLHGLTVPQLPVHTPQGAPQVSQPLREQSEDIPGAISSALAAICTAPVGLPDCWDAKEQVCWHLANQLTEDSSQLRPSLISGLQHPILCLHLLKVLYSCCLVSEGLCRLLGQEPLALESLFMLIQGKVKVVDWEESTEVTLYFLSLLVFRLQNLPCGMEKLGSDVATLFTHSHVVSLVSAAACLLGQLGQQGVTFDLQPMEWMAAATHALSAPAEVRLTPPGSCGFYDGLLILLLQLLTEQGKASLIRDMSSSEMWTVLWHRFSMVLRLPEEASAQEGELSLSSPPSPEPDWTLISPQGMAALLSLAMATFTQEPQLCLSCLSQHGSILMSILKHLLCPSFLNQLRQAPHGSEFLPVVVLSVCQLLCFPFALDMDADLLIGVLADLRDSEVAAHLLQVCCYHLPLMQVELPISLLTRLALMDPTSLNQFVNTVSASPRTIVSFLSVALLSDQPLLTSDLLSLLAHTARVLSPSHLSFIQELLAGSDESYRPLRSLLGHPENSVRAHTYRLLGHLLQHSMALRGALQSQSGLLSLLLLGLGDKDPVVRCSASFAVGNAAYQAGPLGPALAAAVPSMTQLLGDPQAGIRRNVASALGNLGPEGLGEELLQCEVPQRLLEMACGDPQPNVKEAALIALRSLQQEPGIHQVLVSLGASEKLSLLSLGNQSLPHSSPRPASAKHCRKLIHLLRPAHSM

FRK = FRK (Homo sapiens (Human), UniProt P42685); settings: read-out: Percent Control at 100 nM Compound Concentration
FRK, sequence (P42685 whole entry): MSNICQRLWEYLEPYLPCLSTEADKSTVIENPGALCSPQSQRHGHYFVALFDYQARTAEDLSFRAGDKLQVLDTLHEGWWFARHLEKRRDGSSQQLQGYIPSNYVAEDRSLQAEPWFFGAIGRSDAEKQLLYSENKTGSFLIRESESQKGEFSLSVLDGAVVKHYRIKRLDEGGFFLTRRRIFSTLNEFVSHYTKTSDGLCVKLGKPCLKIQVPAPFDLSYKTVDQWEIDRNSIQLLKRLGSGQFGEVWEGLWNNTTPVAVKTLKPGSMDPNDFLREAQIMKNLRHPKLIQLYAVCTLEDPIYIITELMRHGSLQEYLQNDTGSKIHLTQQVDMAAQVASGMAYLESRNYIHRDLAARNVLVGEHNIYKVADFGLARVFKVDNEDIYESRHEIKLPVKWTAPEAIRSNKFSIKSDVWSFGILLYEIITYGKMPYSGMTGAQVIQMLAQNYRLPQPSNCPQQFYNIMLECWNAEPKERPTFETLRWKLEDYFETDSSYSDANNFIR

CDC2L1 = CDC2L1 (Homo sapiens (Human), UniProt P21127); settings: read-out: Percent Control at 100 nM Compound Concentration
CSNK2A1 = CSNK2A1 (Homo sapiens (Human), UniProt P68400); settings: read-out: Percent Control at 100 nM Compound Concentration
EPHA6 = EPHA6 (Homo sapiens (Human), UniProt Q9UF33); settings: read-out: Percent Control at 100 nM Compound Concentration
BMPR1A = BMPR1A (Homo sapiens (Human), UniProt P36894); settings: read-out: Percent Control at 100 nM Compound Concentration
ERBB3 = ERBB3 (Homo sapiens (Human), UniProt P21860); settings: read-out: Percent Control at 100 nM Compound Concentration
CDK4-cyclinD1 = CDK4-cyclinD1 (Homo sapiens (Human), UniProt P11802); settings: read-out: Percent Control at 100 nM Compound Concentration
CSNK1A1 = CSNK1A1 (Homo sapiens (Human), UniProt P48729); settings: read-out: Percent Control at 100 nM Compound Concentration
HIPK4 = HIPK4 (Homo sapiens (Human), UniProt Q8NE63); settings: read-out: Percent Control at 100 nM Compound Concentration
KIT(A829P) = KIT(A829P) (Homo sapiens (Human), UniProt P10721, A829P); settings: read-out: Percent Control at 100 nM Compound Concentration
KIT(A829P), sequence (P10721 26-976 A829P): as the sequence (P10721 26-976) above, with A804P counted along it

p38-gamma = p38-gamma (Homo sapiens (Human), UniProt P53778); settings: read-out: Percent Control at 100 nM Compound Concentration
RIPK1 = RIPK1 (Homo sapiens (Human), UniProt Q13546); settings: read-out: Percent Control at 100 nM Compound Concentration
PIM2 = PIM2 (Homo sapiens (Human), UniProt Q9P1W9); settings: read-out: Percent Control at 100 nM Compound Concentration
ALK = ALK (Homo sapiens (Human), UniProt Q9UM73); settings: read-out: Percent Control at 100 nM Compound Concentration
AURKB = AURKB (Homo sapiens (Human), UniProt Q96GD4); settings: read-out: Percent Control at 100 nM Compound Concentration
[1] = molecular target: EGFR(L747-E749del, A750P) (Homo sapiens (Human), UniProt P00533, A750P/DEL747-749); settings: read-out: Percent Control at 100 nM Compound Concentration
FYN = FYN (Homo sapiens (Human), UniProt P06241); settings: read-out: Percent Control at 100 nM Compound Concentration
CDKL1 = CDKL1 (Homo sapiens (Human), UniProt Q00532); settings: read-out: Percent Control at 100 nM Compound Concentration
CDKL1, sequence (Q00532 whole entry): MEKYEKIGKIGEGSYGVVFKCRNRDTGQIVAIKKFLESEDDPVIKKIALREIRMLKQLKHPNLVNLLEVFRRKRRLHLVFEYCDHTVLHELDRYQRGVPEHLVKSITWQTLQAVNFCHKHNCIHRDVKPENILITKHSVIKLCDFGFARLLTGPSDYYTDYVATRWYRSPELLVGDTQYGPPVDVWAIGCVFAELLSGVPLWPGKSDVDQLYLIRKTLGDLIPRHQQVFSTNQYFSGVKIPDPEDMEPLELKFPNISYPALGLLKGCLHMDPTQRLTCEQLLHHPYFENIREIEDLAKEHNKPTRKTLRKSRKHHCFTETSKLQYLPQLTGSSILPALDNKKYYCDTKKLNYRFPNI

p38-beta = p38-beta (Homo sapiens (Human), UniProt Q15759); settings: read-out: Percent Control at 100 nM Compound Concentration
p38-beta, sequence (Q15759 whole entry): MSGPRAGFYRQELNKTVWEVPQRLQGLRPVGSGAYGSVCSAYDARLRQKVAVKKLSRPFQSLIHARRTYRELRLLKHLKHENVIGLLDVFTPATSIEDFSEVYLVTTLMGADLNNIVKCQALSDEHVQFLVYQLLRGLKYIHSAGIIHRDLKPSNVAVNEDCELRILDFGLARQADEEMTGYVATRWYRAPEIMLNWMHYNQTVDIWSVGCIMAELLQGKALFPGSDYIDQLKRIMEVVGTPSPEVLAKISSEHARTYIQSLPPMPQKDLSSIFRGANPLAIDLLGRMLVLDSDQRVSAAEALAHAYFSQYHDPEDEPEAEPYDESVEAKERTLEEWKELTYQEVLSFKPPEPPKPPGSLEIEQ

ADCK4 = ADCK4 (Homo sapiens (Human), UniProt Q96D53); settings: read-out: Percent Control at 100 nM Compound Concentration

CN(C[C@@H](O)Cc1ccccc1)C(=O)c1cncc(C#Cc2cnn(C(F)F)c2)c1 [Example 2, (S)-5-((1-(difluoromethyl)-1H-pyrazol-4-yl)ethynyl)-N-(2-hydroxy-3-phenylpropyl)-N-methylnicotinamide]
26%: remaining activity at 0.1 µM (RIPK1; RIPK1)
91%: remaining activity at 0.1 µM (PKN1; PKN1)
98%: Percent Control at 100 nM Compound Concentration (FLT3(ITD,F691L)) | remaining activity at 0.1 µM (CSNK2A1; CSNK2A1)
86%: remaining activity at 0.1 µM (BMPR1A; BMPR1A)
95%: remaining activity at 0.1 µM (PIM2; PIM2)
84%: remaining activity at 0.1 µM (WNK4; WNK4)
100%: remaining activity at 0.1 µM (SRMS; SRMS) | remaining activity at 0.1 µM (FGFR3; FGFR3) | remaining activity at 0.1 µM (GRK7; GRK7) | remaining activity at 0.1 µM (KIT; KIT) | remaining activity at 0.1 µM (TRKA; TRKA) | remaining activity at 0.1 µM (STK36; STK36) | remaining activity at 0.1 µM (FRK; FRK) | remaining activity at 0.1 µM (CDC2L1; CDC2L1) | remaining activity at 0.1 µM (EPHA6; EPHA6) | remaining activity at 0.1 µM (ERBB3; ERBB3) | remaining activity at 0.1 µM (CDK4-cyclinD1; CDK4-cyclinD1) | remaining activity at 0.1 µM (CSNK1A1; CSNK1A1) | remaining activity at 0.1 µM (HIPK4; HIPK4) | remaining activity at 0.1 µM (KIT(A829P); KIT(A829P)) | remaining activity at 0.1 µM (p38-gamma; p38-gamma) | remaining activity at 0.1 µM (ALK; ALK) | remaining activity at 0.1 µM (AURKB; AURKB) | remaining activity at 0.1 µM ([1]; EGFR(L747-E749del, A750P)) | remaining activity at 0.1 µM (FYN; FYN) | remaining activity at 0.1 µM (CDKL1; CDKL1) | remaining activity at 0.1 µM (p38-beta; p38-beta) | remaining activity at 0.1 µM (ADCK4; ADCK4)

CN(C[C@H](Cc1ccccc1)OP(=O)(O)O)C(=O)c1cncc(C#Cc2cnn(C(F)F)c2)c1 [Example 19, (S)-1-(5-((1-(difluoromethyl)-1H-pyrazol-4-yl)ethynyl)-N-methylnicotinamido)-3-phenylpropan-2-yl dihydrogen phosphate]
96%: remaining activity at 0.1 µM (SRMS)
90%: remaining activity at 0.1 µM (AURKB)
100%: remaining activity at 0.1 µM (PKN1) | remaining activity at 0.1 µM (FGFR3) | remaining activity at 0.1 µM (GRK7) | remaining activity at 0.1 µM (STK36) | remaining activity at 0.1 µM (FRK) | remaining activity at 0.1 µM (CDC2L1) | remaining activity at 0.1 µM (EPHA6) | remaining activity at 0.1 µM (ERBB3) | remaining activity at 0.1 µM (HIPK4) | remaining activity at 0.1 µM (PIM2) | remaining activity at 0.1 µM (ALK) | remaining activity at 0.1 µM (FYN) | remaining activity at 0.1 µM (CDKL1) | remaining activity at 0.1 µM (ADCK4)
92%: remaining activity at 0.1 µM (CSNK1A1)
97%: Percent Control at 100 nM Compound Concentration (FLT3(ITD,F691L)) | remaining activity at 0.1 µM (CDK4-cyclinD1) | remaining activity at 0.1 µM (p38-beta)
84%: remaining activity at 0.1 µM [1]
98%: remaining activity at 0.1 µM (CSNK2A1)
88%: remaining activity at 0.1 µM (p38-gamma)
81%: remaining activity at 0.1 µM (WNK4) | remaining activity at 0.1 µM (TRKA)
99%: remaining activity at 0.1 µM (KIT) | remaining activity at 0.1 µM (KIT(A829P))
94%: remaining activity at 0.1 µM (BMPR1A)
91%: remaining activity at 0.1 µM (RIPK1)
